Data set [1] deals with stratum corneum. The following applies: patients with atopic dermatitis, topical treatment; cited from earlier work.
Data set [2] has as its system skin. Kind of data set: Concentration needed for skin effect, judged by redness, swelling, tingling and burning sensation. The data set is classed as in vivo, human. The procedure:
The concentration of the NO-donor in the topical composition of the present invention is determined by the amount that is sufficient to elevate the level of NO in the skin, upon topical application of the composition. Since measuring NO levels in humans is impractical, such elevation can be observed by the appearance of skin redness (erythema), swelling (oedema) a tingling sensation and a burning sensation, which is intensified as the concentration goes up. Furthermore, the occurrence of elevated NO can be noticed by its desirable cosmetic outcomes such as enhanced radiance and reduction of wrinkles.
For example, in the case of nitroglycerine, 2% is insufficient. At higher concentrations, from about 4%, a slight burning sensation is noticed. This sensation intensifies as the nitroglycerine concentration increases. Thus, in certain embodiments, the concentration of nitroglycerine as NO-donor is between about 4% - about 12%; and in other embodiments it can be from about 4%-8%, or from about 8%-12%.
In the case of arginine, 5% is insufficient. At higher concentrations, from about 6%, a slight burning sensation is noticed, and it is associated with a tingling sensation. This sensation intensifies as the arginine concentration increases. Thus, in certain embodiments, the concentration of arginine as NO-donor is at least about 6%. For example, between about 6% and about 25%. In other embodiments, the concentration of arginine can be from about 6% to about 8%, or from about 8% to about 10%, or from about 10% to about 14%, or from about 14% to about 18%, or from about 18% to about 25%, or from about 8% to about 25%, or from about 6% to about 12%, or from about 8% to about 12%, or from about 8% to about 10%.
The concentration of the counter-NO agent is determined so that the skin redness (erythema), swelling (oedema) and burning sensation, induced by the NO-donor is decreased or eliminated. For example, in certain cases, where the counter-NO agent is nicotinamide, 0.5% is insufficient. […]

Data set [3] concerns ageing skin. The experiment in a line: Treatment of ageing skin, study #2: day cream used for 28 days, unguided free-form feedback. Format: in vivo, human. The following applies: addition of nicotinamide to the arginine cream. An excerpt:
Objectives: To determine the impact of Composition #1 on middle-aged women after 28 days of continuous use. […] They were asked to use the cream daily for 28 days and to provide unguided input (free form) Results: 13 of the 20 women provided feedback that was summarized in the table below.

Data on 3 molecules can be found in patent publication US20230355500A1, “TOPICAL COMPOSITION” (LILIGER LTD, priority 2021, published 2023).

Turning to `Cl.N=C(N)NCCC[C@H](N)C(=O)O` [arginine hydrochloride], in data set [1], the “Clinical symptoms of dry skin” value was “improvement”, the Skin moisture entry is listed as “increase” and the “Urea in the stratum corneum” value is listed as “significantly increase”.

Turning to `N=C(N)NCCC[C@H](N)C(=O)O` [arginine, L-arginine], the “Sufficiency of the concentration as NO-donor” value in data set [2] (5% in the topical composition) is reported as “insufficient”. The “Concentration from which a slight burning sensation is noticed” value in data set [2] (human, in vivo) is given as “at least 6%”.

In the case of `NC(=O)c1cccnc1` [nicotinamide], the “Previous issues (Study #1) of burning sensation and over-tingling” value in data set [3] is listed as “solved”. The “Sufficiency of the concentration as counter-NO agent (to decrease redness, swelling and burning sensation)” value in data set [2] (0.5% in the topical composition, in certain cases) was “insufficient”.
